Converted amounts (≈) assume the structure as drawn. Like-named read-outs stand apart in the source and are kept apart here.

What all share (assay): MIC, antimicrobial activity
Assay [1] has as its system Klebsiella pneumoniae Kl-38. The following applies: for Minimum Inhibitory Concentration (MIC): Klebsiella pneumoniae Kl-38; for MIC: Klebsiella pneumoniae.
Assay [2] relates to Serratia marcescens ATCC 13880. The following applies: for MIC: Serratia marcescens.
Assay [3] has as its system Escherichia coli W-677/JR-762. The following applies: for Minimum Inhibitory Concentration (MIC): Escherichia coli W-677/JR-762, tobramycin resistant strain; for MIC: Escherichia coli, W677/JR762, read-out: Minimum Inhibitory Concentration (MIC), Escherichia coli W-677/JR-762, tobramycin resistant strain.
The subject of assay [4] is Pseudomonas aeruginosa Ps-24. To be noted: for Minimum Inhibitory Concentration (MIC): Pseudomonas aeruginosa Ps-24; for MIC: Pseudomonas aeruginosa.
Assay [5] has as its system Enterobacter cloacae TB-718. Format: cell-based. To be noted: for Minimum Inhibitory Concentration (MIC): Enterobacter cloacae TB-718; for MIC: Enterobacter cloacae, TB718, Enterobacter cloacae TB-718, read-out: Minimum Inhibitory Concentration (MIC).
The subject of assay [6] is Pseudomonas aeruginosa PP-6. The following applies: for MIC: Pseudomonas aeruginosa; for Minimum Inhibitory Concentration (MIC): Pseudomonas aeruginosa PP-6, tobramycin resistant strain.
For assay [7], the system named is Proteus inconstans In-27. The format is cell-based. The following applies: for MIC: Providencia alcalifaciens, IN27, read-out: Minimum Inhibitory Concentration (MIC), Proteus inconstans In-27, tobramycin resistant strain; for Minimum Inhibitory Concentration (MIC): Proteus inconstans In-27, tobramycin resistant strain.
Assay [8] deals with Proteus rettgeri Ret 40. The following applies: for Minimum Inhibitory Concentration (MIC): Proteus rettgeri Ret 40; for MIC: Providencia rettgeri, RET40, read-out: Minimum Inhibitory Concentration (MIC), Proteus rettgeri Ret 40.
Assay [9] concerns Escherichia coli NIHJ JC-2. The following applies: for Minimum Inhibitory Concentration (MIC): Escherichia coli NIHJ JC-2; for MIC: Escherichia coli.
The subject of assay [10] is Proteus mirabilis TB-617. Format: cell-based. To be noted: for Minimum Inhibitory Concentration (MIC): Proteus mirabilis TB-617; for MIC: Proteus mirabilis, TB617, Proteus mirabilis TB-617, read-out: Minimum Inhibitory Concentration (MIC).
For assay [11], the system named is Staphylococcus aureus FDAJC. To be noted: for MIC: Staphylococcus aureus, read-out: Minimum Inhibitory Concentration (MIC), Staphylococcus aureus FDAJC; for Minimum Inhibitory Concentration (MIC): Staphylococcus aureus FDAJC.
The mark [12] stands for this setting: ATCC13880, read-out: Minimum Inhibitory Concentration (MIC).
The mark [13] stands for this setting: PP6, read-out: Minimum Inhibitory Concentration (MIC), Pseudomonas aeruginosa PP-6, tobramycin resistant strain.
[14] abbreviates: ATCC13880, read-out: Minimum Inhibitory Concentration (MIC), Serratia marcescens ATCC 13880.
[15] abbreviates: KL38, read-out: Minimum Inhibitory Concentration (MIC), Klebsiella pneumoniae Kl-38.
Setting [16] is: PS24, read-out: Minimum Inhibitory Concentration (MIC), Pseudomonas aeruginosa Ps-24.
[17] abbreviates: PP6, read-out: Minimum Inhibitory Concentration (MIC).
Setting [18] is: NIHJJC2, read-out: Minimum Inhibitory Concentration (MIC), Escherichia coli NIHJ JC-2.
[19] abbreviates: NIHJJC2, read-out: Minimum Inhibitory Concentration (MIC).
[20] abbreviates: KL38, read-out: Minimum Inhibitory Concentration (MIC).

Turning to `NC[C@H]1O[C@H](O[C@H]2[C@H](O)[C@@H](O[C@H]3O[C@H](CO)[C@@H](O)[C@H](N)[C@H]3O)[C@H](NC(=O)C(O)C3CNCCN3)C[C@@H]2N)[C@H](N)C[C@@H]1O` (single isomer, unassigned) [(8), 1-N-[2-hydroxy-2-(piperazin-2-yl)acetyl]tobramycin], the “Minimum Inhibitory Concentration (MIC)” value in assay [1] was 0.8 µg/mL; in assay [3] it was 3.1 µg/mL; in assay [4], 0.8 µg/mL; in [5], 0.8 µg/mL; in [8] it was 0.8 µg/mL; in [9] it was 1.6 µg/mL. Also, the “Minimum Inhibitory Concentration (MIC)” value in [10] is 1.6 µg/mL. The MIC in assay [2] (setting [12]) was 25 µg/mL (≈ 41 µM); in [6] (setting [13]), 12.5 µg/mL (≈ 20.5 µM); in [7], 100 µg/mL (≈ 164 µM); in assay [11], 0.1 µg/mL (≈ 0.164 µM).

As for `NC[C@H]1O[C@H](O[C@H]2[C@H](O)[C@@H](O[C@H]3O[C@H](CO)[C@@H](O)[C@H](N)[C@H]3O)[C@H](NC(=O)C(O)C3CNCCN3)C[C@@H]2N)[C@H](N)C[C@@H]1O` (single isomer, unassigned) [(9), 1-N-[2-hydroxy-2-(piperazin-2-yl)acetyl]tobramycin], the “Minimum Inhibitory Concentration (MIC)” value is 6.2 µg/mL in assay [1]; 25.0 µg/mL in assay [3]; 3.1 µg/mL in assay [4]; 12.5 µg/mL in [5]; 25.0 µg/mL in assay [6]; greater than 100.0 µg/mL in assay [7]. For the same molecule, the “Minimum Inhibitory Concentration (MIC)” value in assay [8] was determined as 3.1 µg/mL; in [9], 25.0 µg/mL; in assay [10] it was 6.2 µg/mL; in assay [11], 0.1 µg/mL. Further, the MIC in [2] (setting [14]) worked out at 100 µg/mL (≈ 164 µM).

As for `NC[C@H]1O[C@H](O[C@H]2[C@H](O)[C@@H](O[C@H]3O[C@H](CO)[C@@H](O)[C@H](N)[C@H]3O)[C@H](NC(=O)C(O)C3CCNC3)C[C@@H]2N)[C@H](N)C[C@@H]1O` (stereo partly shown) [(1), 1-N-[2-hydroxy-2-(pyrrolidin-3-yl)acetyl]tobramycin], the MIC in assay [1] (setting [15]) turned out to be 0.8 µg/mL (≈ 1.35 µM); in assay [2] (setting [14]), 12.5 µg/mL (≈ 21 µM); in assay [3], 6.2 µg/mL (≈ 10.4 µM); in assay [4] (setting [16]), 1.6 µg/mL (≈ 2.69 µM); in [5], 1.6 µg/mL (≈ 2.69 µM); in [6] (setting [17]), 3.1 µg/mL (≈ 5.21 µM). Moreover, the MIC in [7] was found to be 100 µg/mL (≈ 168 µM); in assay [8], 0.8 µg/mL (≈ 1.35 µM); in [9] (setting [18]), 1.6 µg/mL (≈ 2.69 µM); in [10], 3.1 µg/mL (≈ 5.21 µM); in [11], 0.1 µg/mL (≈ 0.168 µM).

As for `NC[C@H]1O[C@H](O[C@H]2[C@H](O)[C@@H](O[C@H]3O[C@H](CO)[C@@H](O)[C@H](N)[C@H]3O)[C@H](NC(=O)C(O)C3CCN3)C[C@@H]2N)[C@H](N)C[C@@H]1O` (stereo partly shown) [(2), 1-N-[2-hydroxy-2-(azetidin-2-yl)acetyl]tobramycin], the MIC was found to be 1.6 µg/mL (≈ 2.76 µM) in [1] (setting [15]); 50 µg/mL (≈ 86.1 µM) in assay [2] (setting [12]); 6.2 µg/mL (≈ 10.7 µM) in assay [3]; 1.6 µg/mL (≈ 2.76 µM) in assay [4] (setting [16]); 3.1 µg/mL (≈ 5.34 µM) in assay [5]; 12.5 µg/mL (≈ 21.5 µM) in assay [6] (setting [13]). Besides, the MIC in assay [7] is greater than 100 µg/mL; in [8] it was 0.8 µg/mL (≈ 1.38 µM); in [9] (setting [18]), 6.2 µg/mL (≈ 10.7 µM); in assay [10] it was 3.1 µg/mL (≈ 5.34 µM); in [11], 0.1 µg/mL (≈ 0.172 µM).

Turning to `NC[C@H]1O[C@H](O[C@H]2[C@H](O)[C@@H](O[C@H]3O[C@H](CO)[C@@H](O)[C@H](N)[C@H]3O)[C@H](NC(=O)C(O)C3CNC3)C[C@@H]2N)[C@H](N)C[C@@H]1O` (stereo partly shown) [(3), 1-N-[2-hydroxy-2-(azetidin-3-yl)acetyl]tobramycin], the MIC in [1] (setting [15]) came to 0.4 µg/mL (≈ 0.689 µM); in assay [2] (setting [12]) it was 6.2 µg/mL (≈ 10.7 µM); in assay [3], 1.6 µg/mL (≈ 2.76 µM); in [4] (setting [16]) it was 0.4 µg/mL (≈ 0.689 µM); in [5], 0.4 µg/mL (≈ 0.689 µM); in [6] (setting [17]), 1.6 µg/mL (≈ 2.76 µM). Also, the MIC in assay [7] worked out at 50 µg/mL (≈ 86.1 µM); in assay [8], 0.4 µg/mL (≈ 0.689 µM); in [9] (setting [18]) it was 0.4 µg/mL (≈ 0.689 µM); in assay [10], 0.8 µg/mL (≈ 1.38 µM); in assay [11] it was 0.1 µg/mL (≈ 0.172 µM).

Take `NC[C@H]1O[C@H](O[C@H]2[C@H](O)[C@@H](O[C@H]3O[C@H](CO)[C@@H](O)[C@H](N)[C@H]3O)[C@H](NC(=O)C(O)C3CCCNC3)C[C@@H]2N)[C@H](N)C[C@@H]1O` (stereo partly shown) [(4), 1-N-[2-hydroxy-2-(piperidin-3-yl)acetyl]tobramycin]: the MIC in [1] (setting [15]) was 1.6 µg/mL (≈ 2.63 µM); in assay [2] (setting [12]), 25 µg/mL (≈ 41.1 µM); in assay [3], greater than 100 µg/mL; in assay [4] (setting [16]), 12.5 µg/mL (≈ 20.5 µM); in assay [5], 1.6 µg/mL (≈ 2.63 µM); in assay [6] (setting [13]), 25 µg/mL (≈ 41.1 µM). In addition, the MIC in [7] was greater than 100 µg/mL; in assay [8], 1.6 µg/mL (≈ 2.63 µM); in assay [9] (setting [18]), 1.6 µg/mL (≈ 2.63 µM); in assay [10] it was 3.1 µg/mL (≈ 5.09 µM); in [11] it was 0.1 µg/mL (≈ 0.164 µM).

As for `NC[C@H]1O[C@H](O[C@H]2[C@H](O)[C@@H](O[C@H]3O[C@H](CO)[C@@H](O)[C@H](N)[C@H]3O)[C@H](NC(=O)C(O)C3CCCN3)C[C@@H]2N)[C@H](N)C[C@@H]1O` (stereo partly shown) [(5), 1-N-[2-hydroxy-2-(pyrrolidin-2-yl)acetyl]tobramycin], the “Minimum Inhibitory Concentration (MIC)” value was 6.2 µg/mL in assay [1]; 25.0 µg/mL in assay [3]; 6.2 µg/mL in [4]; 6.2 µg/mL in assay [5]; 3.1 µg/mL in assay [8]; 6.2 µg/mL in [10]. Further, the “Minimum Inhibitory Concentration (MIC)” value in [11] was determined as 0.1 µg/mL. The MIC is 100 µg/mL (≈ 168 µM) in [2] (setting [14]), 25 µg/mL (≈ 42 µM) in assay [6] (setting [13]), greater than 100 µg/mL in [7] and 12.5 µg/mL (≈ 21 µM) in assay [9] (setting [19]).

In the case of `NC[C@H]1O[C@H](O[C@H]2[C@H](O)[C@@H](O[C@H]3O[C@H](CO)[C@@H](O)[C@H](N)[C@H]3O)[C@H](NC(=O)C(O)C3CCCN3)C[C@@H]2N)[C@H](N)C[C@@H]1O` (stereo partly shown) [(6), 1-N-[2-hydroxy-2-(pyrrolidin-2-yl)acetyl]tobramycin], the “Minimum Inhibitory Concentration (MIC)” value in assay [1] was 0.8 µg/mL; in assay [3] it was 3.1 µg/mL; in [4], 1.6 µg/mL; in assay [5] it was 0.8 µg/mL; in [7] it was greater than 100.0 µg/mL; in assay [8], 0.2 µg/mL. For the same molecule, the “Minimum Inhibitory Concentration (MIC)” value was found to be 0.8 µg/mL in assay [9], 0.8 µg/mL in assay [10] and 0.1 µg/mL in assay [11]. Besides, the MIC in assay [2] (setting [12]) came to 25 µg/mL (≈ 42 µM); in assay [6] (setting [17]), 6.2 µg/mL (≈ 10.4 µM).

Regarding `NC[C@H]1O[C@H](O[C@H]2[C@H](O)[C@@H](O[C@H]3O[C@H](CO)[C@@H](O)[C@H](N)[C@H]3O)[C@H](NC(=O)C(O)C3CCCN3)C[C@@H]2N)[C@H](N)C[C@@H]1O` (stereo partly shown) [(7), 1-N-[2-hydroxy-2-(pyrrolidin-2-yl)acetyl]tobramycin], the MIC in assay [1] (setting [20]) amounted to 12.5 µg/mL (≈ 21 µM); in [4] (PS24, read-out: Minimum Inhibitory Concentration (MIC)) it was 12.5 µg/mL (≈ 21 µM). For the same molecule, the “Minimum Inhibitory Concentration (MIC)” value in assay [2] (Serratia marcescens ATCC 13880) was greater than 100.0 µg/mL; in [3] it was 100.0 µg/mL; in [5] it was 25.0 µg/mL; in assay [6], 50.0 µg/mL; in assay [7], greater than 100.0 µg/mL; in [8] it was 6.2 µg/mL. For the same molecule, the “Minimum Inhibitory Concentration (MIC)” value in assay [9] came to 50.0 µg/mL; in [10] it was 12.5 µg/mL; in assay [11] it was 0.4 µg/mL.

In the case of `NC[C@H]1O[C@H](O[C@H]2[C@H](O)[C@@H](O[C@H]3O[C@H](CO)[C@@H](O)[C@H](N)[C@H]3O)[C@H](N)C[C@@H]2N)[C@H](N)C[C@@H]1O` [TOB, tobramycin, reference compound], the MIC in assay [1] (setting [20]) worked out at 3.13 µg/mL (≈ 6.69 µM); in assay [2] (setting [14]) it was 3.13 µg/mL (≈ 6.69 µM); in assay [4] (setting [16]), 0.39 µg/mL (≈ 0.834 µM); in assay [6] (setting [13]), 50 µg/mL (≈ 107 µM); in [8], 0.39 µg/mL (≈ 0.834 µM); in assay [9] (setting [19]) it was 0.78 µg/mL (≈ 1.67 µM). Also, the MIC in [11] stood at 0.05 µg/mL (≈ 0.107 µM).

These data come from patent US4200628A, “Novel aminoglycoside derivatives” (Shionogi & Co., Ltd., priority 1977, dated 1980).
